Test system: Patients with allergic conjunctivitis
Assay: Antigen instillation into the eye of patients with allergic conjunctivitis; itchiness of the eye scored in 9 levels, improvement rate versus base line
Format: in vivo, human
Conditions: for improvement (%) of group with pre-administration: once a day for one week, antigen given 16 hr after last instillation; for improvement (%) of group with pre-administration / improvement (%) of group without pre-administration: itchiness 3 min later, proportion of patients with at least 1 point lower itchiness than base line; for improvement (%) of group without pre-administration: single instillation, antigen given 8 hr after instillation
Protocol: Patients with allergic conjunctivitis (3 groups, 30 patients per group) were instilled with an antigen into the eye. Three minutes later, itchiness of the eye was evaluated in 9 levels (0, 0.5, 1, 1.5, 2, 2.5, 3, 3.5, 4), and the average value (base line group) of itchiness was determined. A specific antigen was determined for each patient. […] At least one week was allowed to lapse from the test of Method 1, and FK506 eye drop (suspension) [0.03%, 0.06% or 0.1%] was instilled into the eye of the patients. At 8 hr after the instillation of the eye drop, the antigen was given. Three minutes later, itchiness of the eye was evaluated in the same manner as in Method 1, and the average value (without pre-administration) of itchiness was determined. […] At least one week was allowed to lapse from the test of Method 2, and FK506 eye drop was instilled into the eye of the patients once a day for one week. At 16 hr after the last instillation of the eye drop, the antigen was given. Three minutes later, itchiness of the eye was evaluated in the same manner as in Method 1, and the average value (with pre-administration) of itchiness was determined.

C=CC[C@@H]1/C=C(\C)C[C@H](C)C[C@H](OC)[C@H]2O[C@@](O)(C(=O)C(=O)N3CCCC[C@H]3C(=O)O[C@H](/C(C)=C/[C@@H]3CC[C@@H](O)[C@H](OC)C3)[C@H](C)[C@@H](O)CC1=O)[C@H](C)C[C@@H]2OC [FK506, 17-allyl-1,14-dihydroxy-12-[2-(4-hydroxy-3-methoxycyclohexyl)-1-methylvinyl]-23,25-dimethoxy-13,19,21,27-tetramethyl-11,28-dioxa-4-azatricyclo-[22.3.1.0^4,9]octacos-18-ene-2,3,10,16-tetraone]
improvement rate of the group with pre-administration after 16 hr compared with the group without pre-administration after 8 hr (0.1% concentration groups): markedly higher
improvement (%) of group with pre-administration (FK506 eye drop 0.03%): 61.54%
improvement (%) of group with pre-administration (FK506 eye drop 0.06%): 65.52%
improvement (%) of group with pre-administration (FK506 eye drop 0.1%): 72.41%
improvement (%) of group without pre-administration (FK506 eye drop (suspension) 0.03%): 25.93%
improvement (%) of group without pre-administration (FK506 eye drop (suspension) 0.06%): 40.00%
improvement (%) of group without pre-administration (FK506 eye drop (suspension) 0.1%): 56.67%
improvement effect on the itchiness by setting a leading period for pre-administration (with versus without pre-administration, all concentrations): strikingly enhanced
